This note sets out measurements from patent US20060094059A1, “Methods for identifying new drug leads and new therapeutic uses for known drugs” (Odyssey Thera, Inc., priority 2004, published 2006).

What all share (type): cell-based, human
For one assay, the system named is Smad3:HDAC. As to the kind of experiment: Protein-fragment complementation assay Smad3:HDAC. The following applies: hit in HDAC/SMAD3 assay; drugs screened at 10 micromolar. The source says: (§1) To construct dynamic assays for protein-protein complexes, we used a protein-fragment complementation assay strategy (PCAs) in intact human cells. (A variety of other suitable assays, and reporter options, are described in detail below.) The principle of PCA is that complementary polypeptide fragments (F[1] and F[2]) of a reporter protein or enzyme will fold into an active form only if fused to two proteins which interact and bring the complementary fragments of the reporter protein into proximity. Reconstitution of the fragments of the reporter protein generates a fluorescent signal that can be quantified in intact cells, and the amount of the signal is proportional to the amount of the protein-protein complex used in constructing the assay. Given a suitable reporter type, the subcellular location of the complex can also be measured.
(§2) Reporter fragments for PCA were generated by oligonucleotide synthesis (Blue Heron Biotechnology, Bothell, Wash.), starting with the sequence of yellow fluorescent protein (YFP). First, oligonucleotides coding for polypeptide fragments YFP[1]and YFP[2] […] Next, PCR mutagenesis was used to generate the mutant fragments IFP[1] and IFP[2]. The IFP[1] fragment corresponds to YFP[1]-(F46L, F64L, M153T) and the IFP[2] fragment corresponds to YFP[2]-(V163A, S175G). […]

For another assay, the system named is MAX:MYC. As to the kind of experiment: Protein-fragment complementation assay MAX:MYC. Conditions: hit in MYC/MAX assay; drugs screened at 10 micromolar.
Source text: as §1, §2

The test system of assay [1] is phospho-ERK (MAPK) in the presence of VEGF. As to the kind of experiment: Immunofluorescence assay phospho-ERK + VEGF. The following applies: FIG. 3G, compared with the vehicle alone. Here is the method:
Immunofluorescence was performed on drug-treated cells to assess the post-translational modification status of proteins involved in the pathways of interest. We constructed assays designed to measure the phosphorylation status of key signaling proteins in the absence and presence of a growth factor stimulus. A drug capable of blocking or inhibiting the pathway leading to the signaling protein would in principle cause a decrease in the phosphorylation of that signaling protein in response to the selected growth factor. Such a change in phosphorylation status could be measured by a decrease in fluorescence in the presence of the drug. […]
HEK293T cells were seeded at a density of 7,500/well in poly-D-lys coated, blackwalled 96 well plate (Greiner). […] Phosphorylated ERK was detected by incubating the fixed cells with rabbit phospho-ERK (T202/Y204)-specific antibodies (Cell Signaling Technologies) followed by Alexa488 conjugated goat anti-rabbit antibody (Molecular Probes). […] Fluorescence images were acquired on a Discovery-1 imaging station (Molecular Devices) as described above.
Background fluorescence due to nonspecific binding by the secondary antibody was established with the use of cells that were incubated with BSA/PBS and without primary antibodies. […]

On to `O=C(Nc1ccc([N+](=O)[O-])cc1Cl)c1cc(Cl)ccc1O` [Niclosamide], for which the Assay activity entry with Smad3:HDAC is reported as “HDAC/SMAD3,”; with MAX:MYC, “MYC/MAX”. Also, the “level of phospho-ERK (intensity of the fluorescence)” value in assay [1] is reported as “decrease in the level of phospho-ERK”.
